pIC50: −log10 of the molar value. Values belong to the compound of their own block, whether it stands above or below them.
Legend:
ROCK1 = ROCK1 (Homo sapiens, UniProt Q13464); experiment: ROCK1 inhibition, ADP-Glo Kinase Assay
GRK1 = target: T1, GRK1 (Homo sapiens, UniProt Q15835); experiment: GRK1 kinase inhibition
T1 sequence (Q15835 1-563): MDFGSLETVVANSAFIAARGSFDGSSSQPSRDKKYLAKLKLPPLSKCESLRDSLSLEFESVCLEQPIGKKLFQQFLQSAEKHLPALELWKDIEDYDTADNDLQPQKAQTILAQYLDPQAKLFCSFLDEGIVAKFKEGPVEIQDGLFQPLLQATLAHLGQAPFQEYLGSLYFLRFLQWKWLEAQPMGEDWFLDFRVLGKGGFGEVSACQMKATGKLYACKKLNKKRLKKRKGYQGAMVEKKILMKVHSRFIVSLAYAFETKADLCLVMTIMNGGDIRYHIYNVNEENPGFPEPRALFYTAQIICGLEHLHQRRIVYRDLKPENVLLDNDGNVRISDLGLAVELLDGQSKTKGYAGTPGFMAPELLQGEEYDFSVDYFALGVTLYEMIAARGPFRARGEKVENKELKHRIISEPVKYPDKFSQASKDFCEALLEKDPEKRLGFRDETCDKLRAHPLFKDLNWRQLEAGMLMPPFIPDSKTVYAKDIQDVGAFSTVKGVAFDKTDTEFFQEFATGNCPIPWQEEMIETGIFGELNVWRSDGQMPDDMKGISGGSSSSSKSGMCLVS

PKA = PKA (Homo sapiens, UniProt P17612); experiment: PKA inhibition, ADP-Glo Kinase Assay
GRK5 = GRK5 (Homo sapiens, UniProt P34947); experiment: GRK5 kinase inhibition
Chain of GRK5 (P34947 whole entry, species assumed): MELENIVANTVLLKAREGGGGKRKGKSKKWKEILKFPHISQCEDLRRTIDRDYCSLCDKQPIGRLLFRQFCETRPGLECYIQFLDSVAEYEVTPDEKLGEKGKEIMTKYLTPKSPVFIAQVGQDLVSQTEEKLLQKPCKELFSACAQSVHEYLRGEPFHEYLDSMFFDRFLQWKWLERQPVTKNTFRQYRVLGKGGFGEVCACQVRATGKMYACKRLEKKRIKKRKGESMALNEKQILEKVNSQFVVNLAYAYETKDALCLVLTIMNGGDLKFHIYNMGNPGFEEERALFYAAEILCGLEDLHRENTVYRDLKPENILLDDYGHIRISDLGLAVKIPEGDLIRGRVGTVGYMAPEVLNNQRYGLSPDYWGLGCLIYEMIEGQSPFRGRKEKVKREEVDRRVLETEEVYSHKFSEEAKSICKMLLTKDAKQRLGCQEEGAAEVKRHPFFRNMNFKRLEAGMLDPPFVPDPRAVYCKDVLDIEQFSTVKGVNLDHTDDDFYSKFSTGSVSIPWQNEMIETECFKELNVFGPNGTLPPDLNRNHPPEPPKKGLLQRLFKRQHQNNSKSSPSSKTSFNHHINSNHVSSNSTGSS

[1] = system: cardiomyocytes isolated from adult mice; experiment: Contractility in mouse cardiomyocytes; conditions: for potency at stimulating cardiomyocyte contraction: compared with lead 2, isoproterenol stimulation

Chain of ROCK1 (Q13464 whole entry, species assumed): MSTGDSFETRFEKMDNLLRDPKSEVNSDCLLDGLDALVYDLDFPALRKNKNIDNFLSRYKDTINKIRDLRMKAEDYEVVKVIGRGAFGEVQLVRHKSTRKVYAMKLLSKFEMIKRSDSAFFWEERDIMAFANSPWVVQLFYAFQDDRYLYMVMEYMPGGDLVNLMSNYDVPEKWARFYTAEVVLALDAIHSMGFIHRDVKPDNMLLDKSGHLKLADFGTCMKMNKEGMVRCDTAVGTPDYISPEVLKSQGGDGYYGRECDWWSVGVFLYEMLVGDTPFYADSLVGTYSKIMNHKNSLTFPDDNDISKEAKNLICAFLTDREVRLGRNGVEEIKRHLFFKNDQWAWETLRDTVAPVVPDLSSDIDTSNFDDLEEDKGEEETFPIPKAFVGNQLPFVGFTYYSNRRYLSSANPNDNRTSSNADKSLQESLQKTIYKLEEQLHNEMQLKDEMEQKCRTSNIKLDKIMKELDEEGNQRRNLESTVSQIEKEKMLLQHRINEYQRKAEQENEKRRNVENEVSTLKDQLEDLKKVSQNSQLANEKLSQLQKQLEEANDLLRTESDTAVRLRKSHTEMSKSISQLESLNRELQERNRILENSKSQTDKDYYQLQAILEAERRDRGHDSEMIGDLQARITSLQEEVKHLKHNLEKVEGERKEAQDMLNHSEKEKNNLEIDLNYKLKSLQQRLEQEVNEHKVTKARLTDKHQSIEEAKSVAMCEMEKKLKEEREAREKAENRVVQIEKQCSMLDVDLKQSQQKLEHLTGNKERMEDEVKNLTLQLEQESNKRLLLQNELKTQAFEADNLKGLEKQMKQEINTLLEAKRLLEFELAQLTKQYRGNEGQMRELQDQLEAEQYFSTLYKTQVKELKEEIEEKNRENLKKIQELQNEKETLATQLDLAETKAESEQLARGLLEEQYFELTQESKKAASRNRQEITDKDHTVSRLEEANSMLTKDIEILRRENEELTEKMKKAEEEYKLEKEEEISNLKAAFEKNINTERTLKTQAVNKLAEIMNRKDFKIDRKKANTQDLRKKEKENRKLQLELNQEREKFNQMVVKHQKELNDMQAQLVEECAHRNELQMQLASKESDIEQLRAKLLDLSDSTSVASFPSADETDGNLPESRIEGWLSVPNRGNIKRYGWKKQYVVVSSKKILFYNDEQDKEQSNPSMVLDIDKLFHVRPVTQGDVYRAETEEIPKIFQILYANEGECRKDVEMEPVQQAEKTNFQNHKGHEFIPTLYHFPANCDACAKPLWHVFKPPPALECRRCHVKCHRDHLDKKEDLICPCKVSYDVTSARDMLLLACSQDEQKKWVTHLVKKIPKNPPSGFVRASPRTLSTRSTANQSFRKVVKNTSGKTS

pIC50 (ROCK1): ~8.00
increase in GRK1 potency in comparison to 12h (GRK1): 50 fold
SMILES: CC1=C(C(=O)Nc2ccc3[nH]ncc3c2)C(c2ccc(F)c(C(=O)NCc3nccc4ccccc34)c2)NC(=O)N1 (stereo not shown) [Compound 12k, 4-(4-Fluoro-3-((isoquinolin-1-ylmethyl)carbamoyl)phenyl)-N-(1H-indazol-5-yl)-6-methyl-2-oxo-1,2,3,4-tetrahydropyrimidine-5-carboxamide]

SMILES: COc1cccc(OC)c1CNC(=O)c1cc(C2NC(=O)NC(C)=C2C(=O)Nc2ccc3[nH]ncc3c2)ccc1F (stereo not shown) [Compound 12n, 4-(3-((2,6-Dimethoxybenzyl)carbamoyl)-4-fluorophenyl)-N-(1H-indazol-5-yl)-6-methyl-2-oxo-1,2,3,4-tetrahydropyrimidine-5-carboxamide]
pIC50 (PKA): < 4.00
decrease in potency at GRK5 compared to 12e (GRK5): 43 fold
decrease in potency at ROCK1 compared to 12e (ROCK1): over 175 fold
inhibition of ROCK1 (ROCK1): no detectable inhibition
potency at stimulating cardiomyocyte contraction [1]: equivalent to or slightly more potent than the lead 2
decrease in potency at GRK1 compared to 12e (GRK1): 6 fold

pIC50 (PKA): < 4.00
SMILES: CC1=C(C(=O)Nc2ccc3[nH]ncc3c2)C(c2ccc(F)c(C(=O)NCc3c(C)cccc3C)c2)NC(=O)N1 (stereo not shown) [Compound 12m, 4-(3-((2,6-Dimethylbenzyl)carbamoyl)-4-fluorophenyl)-N-(1H-indazol-5-yl)-6-methyl-2-oxo-1,2,3,4-tetrahydropyrimidine-5 carboxamide]
potency at stimulating cardiomyocyte contraction [1]: equivalent to or slightly more potent than the lead 2

SMILES: CC1=C(C(=O)Nc2ccc3[nH]ncc3c2)C(c2ccc(F)cc2)NC(=O)N1 (stereo not shown) [Compound 2, GSK180736A, reference compound]
concentration showing similar efficacy as paroxetine (10 μM) on contractility ([1]; isoproterenol 0.5 μM, 10 min pretreatment): 1 µM

pIC50 (PKA): < 4.00
SMILES: CC1=C(C(=O)Nc2ccc3[nH]ncc3c2)C(c2ccc(F)c(C(=O)NCc3c(F)cccc3F)c2)NC(=O)N1 (stereo not shown) [Compound 12d, 4-(3-((2,6-Difluorobenzyl)carbamoyl)-4-fluorophenyl)-N-(1H-indazol-5-yl)-6-methyl-2-oxo-1,2,3,4-tetrahydropyrimidine-5-carboxamide]
potency at stimulating cardiomyocyte contraction [1]: equivalent to or slightly more potent than the lead 2

pIC50 (PKA): < 4.00
selectivity for GRK2 over GRK5 (GRK5): over 770 fold
selectivity for GRK2 over GRK1 (GRK1): over 770 fold
SMILES: CC1=C(C(=O)Nc2ccc3[nH]ncc3c2)C(c2ccc(F)c(C(=O)NCc3c(Cl)cccc3Cl)c2)NC(=O)N1 (stereo not shown) [Compound 12l, 4-(3-((2,6-Dichlorobenzyl)carbamoyl)-4-fluorophenyl)-N-(1H-indazol-5-yl)-6-methyl-2-oxo-1,2,3,4-tetrahydropyrimidine-5-carboxamide]
